Laboratory results reported in US20130158024A1, “TRICYCLIC NECROSTATIN COMPOUNDS” (priority 2005, published 2013).
Entries after “also recorded” stand apart in the source; their conditions may differ. Like-named read-outs stand apart in the source and are kept apart here.

How the values were obtained:
U937 cells = experiment: Oxidative stress (menadione) induced death of U937 cells, ATP assay; format: cell-based, human; conditions: 250 μM menadione, 24 hours
Procedure: Viability of TNFα/zVAD/DMSO or manadione/DMSO blank treated cells is also shown (- - -). Viability was determined using ATP-Lite-M assay (Packard). Numbers represent percentages of live cells. The values were normalized relative to the zVAD or DMSO treated controls, which were set as 100% viability.
In this and subsequent panels, cell viability was determined via ATP assay. Numbers represent viability normalized to that of the DMSO-treated cells in the absence of TNFα and menadione. Throughout, error bars represent standard deviations. […] Representative images are shown. […] Protein lysates were subjected to western blotting with antibodies to LC3 and to tubulin. The ratio of LC3-II to tubulin signals was calculated (“Ratio”) and normalized to the value in the control sample. […] Alternatively, cells were treated with 2 μM rapamycin. […] Numbers represent viability normalized to that of the compound-treated cells in the absence of TNFα. In FIG. 28H, expression of beclin-1 (“Bec”) and tubulin (“Tub”) in the stable populations of cells in FIG. 28G was analyzed by western blotting.

[1] = test system: FADD-deficient Jurkat T cells treated with TNF-α; experiment: Inhibition of necroptosis (CICD) in FADD-deficient Jurkat T cells treated with TNF-α, ATP-based viability; format: cell-based, human
Jurkat T cells = experiment: Necrosis (CICD) of Jurkat T cells induced by Fas ligand, cycloheximide and zVAD, ATP assay; format: cell-based, human; conditions: FasL/CHX/zVAD
Procedure: Jurkat cells were treated with 5 ng/ml of FasL without (A) or with cyclohexamide (CHX) (B) to induce apoptosis, or 5 ng/ml FasL, 1 μg/ml of CHX and 100 μM of zVAD.fmk to induce CICD (B). […] Cell viability was determined after 24 hours of incubation with indicated reagents using CellTiter-Glo ATP assay. The values represent viability relative to the control Jurkat cells without the treatment of FasL, which was set as 100% viability.
FIG. 34A is a graph showing the results of treating Jurkat T cells with Fas ligand (5 ng/ml), cyclohexamide (1 μg/ml) and zVAD (100 μM) in the presence of the indicated amounts of anti-necrotic compounds (4) and (5). Viability was determined 36 hours later using an ATP assay. The viability values are relative to the samples lacking Fas ligand, which were used as 100% viability controls. FIG. 34B is a graph as in FIG. 34A, in which the anti-necrotic compounds are (19) and (20).
Compounds were also tested in another necrosis assay utilizing human Jurkat T cells, Fas ligand to induce cell death, and zVAD to inhibit the apoptosis pathway. After 36 hours, cell viability was measure by the commercial CellTiter ATP cell viability assay (Promega).

[2] = test system: FADD deficient Jurkat cells; conditions: compound alone
[3] = Homo sapiens, Jurkat, 24 h, read-out: EC50 (μM) for inhibition of necroptosis

melting point | Molecule | EC50 [1, 3] | also measured
 | catalase [reference compound] |  | protection from menadione induced cell death, in words (U937 cells): provided protection against menadione
176 to 177 °C | COc1ccc2c(c1)C1=NN(C(C)=O)[C@@H](c3cccc(F)c3)[C@H]1CC2 (relative stereo) [Compound 166, (3R,3aR)-rel-2-acetyl-3,3a,4,5-tetrahydro-3-(3-fluorophenyl)-8-methoxy-2H-benz[g]indazole] | 0.68 ± 0.009 µM | 
257 to 260 °C | COc1ccc([C@H]2[C@H]3CCc4ccccc4C3=NN2C(C)=O)cc1 (relative stereo) [Compound 167, (3R,3aR)-rel-2-acetyl-3,3a,4,5-tetrahydro-3-(4-methoxyphenyl)-2H-benz[g]indazole] | 0.84 ± 0.32 µM | 
168 to 171 °C | CC(=O)N1N=C2c3ccccc3CC[C@H]2[C@@H]1c1ccc(F)cc1 (relative stereo) [Compound 199, (3R,3aS)-rel-2-acetyl-3,3a,4,5-tetrahydro-3-(4-fluorophenyl)-2H-benz[g]indazole] |  | 
189 to 193 °C | COc1ccc2c(c1)C1=NN(C(C)=O)[C@@H](c3ccc4c(c3)OCCO4)[C@H]1CC2 (relative stereo) [Compound 178, (3R,3aR)-rel-2-acetyl-3,3a,4,5-tetrahydro-3-(3,4-ethylenedioxyphenyl)-8-methoxy-2H-benz[g]indazole] | 2.1 ± 0.65 µM | 
218 to 220 °C | CC(=O)N1N=C2c3cc(C)ccc3OC[C@H]2[C@@H]1c1ccc(F)cc1 (relative stereo) [Compound 184, (3R,3aS)-rel-2-acetyl-2,3,3a,4-tetrahydro-3-(4-fluorophenyl)-8-methyl-[1]benzopyrano[4,3-c]pyrazole] | > 100 µM | 
196 to 199 °C | COc1ccc2c(c1)C1=NN(C(C)=O)[C@@H](c3cccc(F)c3)[C@@H]1CC2 (relative stereo) [Compound 200, (3R,3aS)-rel-2-acetyl-3,3a,4,5-tetrahydro-3-(3-fluorophenyl)-8-methoxy-2H-benz[g]indazole] |  | 
 | O=c1[nH]c2ccccc2c2ccccc12 [6(5H)-Phenanthridione, reference compound] |  | inhibition of CICD/necrosis of Jurkat cells, in words (Jurkat T cells): failed to inhibit CICD of Jurkat cells
 | vitamin E [reference compound] |  | protection from menadione induced cell death, in words (U937 cells): provided protection against menadione
 | COc1ccc([C@H]2[C@@H]3CCc4ccc(OC)cc4C3=NN2C(C)=O)cc1 (relative stereo) [Compound 142, (3R,3aS)-rel-2-acetyl-3,3a,4,5-tetrahydro-3-(4-methoxyphenyl)-8-methoxy-2H-benz[g]indazole] |  | inhibition of CICD/necrosis of Jurkat cells, in words (Jurkat T cells): only the cis isomers (4) (FIG. 34A) and (19) (FIG. 34B) were found to efficiently inhibit necrosis
189 to 193 °C | COc1cc2c(cc1OC)C1=NN(C(C)=O)[C@@H](c3ccc(F)cc3)[C@H]1CC2 (relative stereo) [Compound 164, (3R,3aR)-rel-2-acetyl-3,3a,4,5-tetrahydro-3-(4-fluorophenyl)-7,8-dimethoxy-2H-benz[g]indazole] | > 100 µM | 
 | O=C1NCCc2c(OCCCCN3CCCCC3)cccc21 [DPQ, 3,4-Dihydro-5[4(1-piperindinyl)butoxy]-1(2H)-isoquinoline, reference compound] |  | inhibition of CICD/necrosis of Jurkat cells, in words (Jurkat T cells): failed to inhibit CICD of Jurkat cells
206 to 209 °C | COc1ccc2c(c1)C1=NN(C(C)=O)[C@@H](c3ccc4c(c3)OCO4)[C@H]1CC2 (relative stereo) [Compound 177, (3R,3aR)-rel-2-acetyl-3,3a,4,5-tetrahydro-3-(3,4-methylenedioxyphenyl)-8-methoxy-2H-benz[g]indazole] | 2.6 ± 1.3 µM | 
243 to 246 °C | CC(=O)N1N=C2c3cc(C)ccc3OC[C@@H]2[C@@H]1c1ccc(F)cc1 (relative stereo) [Compound 185, (3R,3aR)-rel-2-acetyl-2,3,3a,4-tetrahydro-3-(4-fluorophenyl)-8-methyl-[1]benzopyrano[4,3-c]pyrazole] | 11.6 ± 6.1 µM | 
165 to 169 °C | COc1ccc2c(c1)C1=NN(C(C)=O)[C@@H](c3ccc4c(c3)OCO4)[C@@H]1CC2 (relative stereo) [Compound 205, (3R,3aS)-rel-2-acetyl-3,3a,4,5-tetrahydro-3-(3,4-methylenedioxyphenyl)-8-methoxy-2H-benz[g]indazole] |  | 
 | COc1ccc2c(c1)C1=NN(C(C)=O)[C@@H](c3ccc(F)cc3)[C@@H]1CC2 (relative stereo) [Compound 160, (3R,3aS)-rel-2-acetyl-3,3a,4,5-tetrahydro-3-(4-fluorophenyl)-8-methoxy-2H-benz[g]indazole] | 3.7 ± 0.75 µM | inhibition of CICD/necrosis of Jurkat cells, in words (Jurkat T cells): only the cis isomers (4) (FIG. 34A) and (19) (FIG. 34B) were found to efficiently inhibit necrosis
 | COc1ccc2c(c1)C1=NN(C(C)=O)[C@@H](c3ccc(F)cc3)[C@H]1CC2 (relative stereo) [Compound 161, (3R,3aR)-rel-2-acetyl-3,3a,4,5-tetrahydro-3-(4-fluorophenyl)-8-methoxy-2H-benz[g]indazole] | 0.96 ± 0.085 µM | inhibition of CICD/necrosis of Jurkat cells, in words (Jurkat T cells): efficiently inhibit necrosis and result in high cell viability
 | CC(=O)N[C@@H](CS)C(=O)O [N-acetyl-cysteine, reference compound] |  | protection from menadione induced cell death, in words (U937 cells): provided protection against menadione
166 to 168 °C | CC(=O)N1N=C2c3ccccc3CC[C@@H]2[C@@H]1c1ccc(F)cc1 (relative stereo) [Compound 165, (3R,3aR)-rel-2-acetyl-3,3a,4,5-tetrahydro-3-(4-fluorophenyl)-2H-benz[g]indazole] | 5.4 ± 1.1 µM | 
174 to 176 °C | COc1ccc2c(c1)C1=NN(C(C)=O)[C@@H](c3ccc(F)cc3)[C@@H]1CO2 (relative stereo) [Compound 211, (3R,3aS)-rel-2-acetyl-2,3,3a,4-tetrahydro-3-(4-fluorophenyl)-8-methoxy-[1]benzopyrano[4,3-c]pyrazole] |  | 
 | superoxide dismutase [reference compound] |  | protection from menadione induced cell death, in words (U937 cells): provided protection against menadione
 | CN1C(=O)NC(Cc2c[nH]c3c(Cl)cccc23)C1=O (stereo not drawn) [7-Cl—O-Nec-1] |  | antinecroptotic (anti-CICD) activity, in words ([1]; FADD-deficient Jurkat cells, TNFα): equally potent anti-CICD activity; also recorded: possessing antinecroptotic activity in vitro similar to that of 7-Cl-Nec-1; EC50 ([1]; Jurkat FADD deficient cells treated with TNFα, read-out: EC50): 0.206 ± 0.033 µM; LD50 (nonspecific toxicity) [2]: > 1 mM
245 °C | COc1ccc2c(c1)C1=NN(C(C)=O)[C@@H](c3ccc(F)cc3)[C@H]1CO2 (relative stereo) [Compound 186, (3R,3aR)-rel-2-acetyl-2,3,3a,4-tetrahydro-3-(4-fluorophenyl)-8-methoxy-[1]benzopyrano[4,3-c]pyrazole] | 4.8 ± 1.3 µM | 
